Laboratory results: patent US4202877A, “Antidermatomycotic agent” (Kureha Kagaku Kogyo Kabushiki Kaisha, priority 1977, dated 1980)
≈ marks a conversion by molar mass, not a printed value.

Columns and labels:
[1] = Subacute toxicity, daily administration over 3 months; assay type: in vivo, mice; details: every day over 3 months, oral 100 mg/kg and percutaneous 250 mg/kg, respectively
Protocol: Further, in order to determine the subacute toxicity of the present substance, it was administered to mice every day over 3 months via an oral and a percutaneous routes using the dosage of 100 mg/kg and 250 mg/kg, respectively.

Solubility = assay type: physicochemical
[2] = Acute toxicity (LD50, mortality one week after administration, Litchfield-Wilcoxon; autopsy after oral administration); assay type: in vivo, ICR-JCL female mice; details: for LD50 at 168 h: mouse, in vivo, mice, 10 tested, one week after administration
Description: Ortho-methoxycinnamaldehyde was suspended in a mixed sulution of 1 part of Tween (mfd. Atlas Powder Co.) and 2 parts of a physiological salt solution. Commercially available ICR-JCL female mice (with a body weight of 22±1 g) were used for the toxicity tests, in which the mice were divided into groups, one being subjected to the percutaneous administration (p.c.) and the other group subjected to the oral administration (p.o.) and, one week after the administration their mortality was observed.

[3] = Antimicrobial activity of synthesized versus extracted substance; details: synthesis method vs extraction method
Escherichia coli = experiment: Antimicrobial spectrum, minimum growth inhibiting concentration (MIC); assay type: cell-based; details: 72 h, Sabouraud's medium pH 5 to 6, 25° C., 3 days
Protocol: (§1) The antimicrobial spectrum was determined using Sabouraud's medium. Three hundred milligrams of o-methoxycinnamaldehyde was dissolved in 15 ml of methanol and diluted to give solutions with different concentrations. An aliquot of 0.1 ml of the solutions was charged into a test tube. Each 10 ml of the sterilized Sabouraud's medium of pH of 5 to 6 was charged into each of the above-mentioned test tube and well mixed with the solution of the present substance. A variety of microbial species were provided and each species was suspended in a physiological salt solution in an amount of 10^5 /ml.

Aspergillus niger = experiment: as above; assay type: cell-based; details: 72 h, Sabouraud's medium pH 5 to 6, 25° C., 3 days
Protocol: as §1

Cryptococcus neoformans = experiment: as above; assay type: cell-based; details: 72 h, Sabouraud's medium pH 5 to 6, 25° C., 3 days
Protocol: as §1

Trichophyton rubrum = experiment: as above; assay type: cell-based; details: 72 h, Sabouraud's medium pH 5 to 6, 25° C., 3 days
Protocol: as §1

Aspergillus fumigatus = experiment: as above; assay type: cell-based; details: 72 h, Sabouraud's medium pH 5 to 6, 25° C., 3 days
Protocol: as §1

[4] = system: Trichophyton mentagrophytes; experiment: as above; assay type: cell-based; details: 72 h, Sabouraud's medium pH 5 to 6, 25° C., 3 days
Protocol: as §1

Microsporum canis = experiment: as above; assay type: cell-based; details: 72 h, Sabouraud's medium pH 5 to 6, 25° C., 3 days
Protocol: as §1

Microsporum gypseum = experiment: as above; assay type: cell-based; details: Nannizzia gypsea, 72 h; Sabouraud's medium pH 5 to 6, 25° C., 3 days
Protocol: as §1

Candida albicans = experiment: as above; assay type: cell-based; details: 72 h, Sabouraud's medium pH 5 to 6, 25° C., 3 days
Protocol: as §1

Staphylococcus aureus = experiment: as above; assay type: cell-based; details: 72 h, Sabouraud's medium pH 5 to 6, 25° C., 3 days
Protocol: as §1

[5] = one week after oral administration

Question: Which “Death or abnormal symptom (subacute toxicity)” value [1] does the source give for COc1ccccc1C=CC=O [o-methoxycinnamaldehyde] here?
Answer: The value was “neither death nor abnormal symptom was observed”.

Question: And the “Solubility in methanol, ethanol, acetone, benzene and chloroform” value (Solubility; methanol, ethanol, acetone, benzene and chloroform)?
Answer: The value was “Soluble in methanol, ethanol, acetone, benzene and chloroform”.

Question: What about the Solubility in water (Solubility; water) of the same compound?
Answer: The Solubility in water was “insoluble in water”.

Question: What about the LD50 at 168 h ([2]; topical or ocular, percutaneous (p.c.)) of the same compound?
Answer: Its LD50 at 168 h is 8670 mg/kg.

Question: And the LD50 at 168 h ([2]; oral (p.o.))?
Answer: Its LD50 at 168 h is 4430 mg/kg.

Question: What about the “Autopsy findings in appearance and visceral observation” value [2, 5] of the same compound?
Answer: Its value is “no specific abnormal finding was obtained in appearance and also in visceral observation”.

Question: And the Toxic symptom [2, 5]?
Answer: The Toxic symptom was “no specific toxic sympton was observed”.

Question: And the “Antimicrobial activity of substance obtained by synthesis compared with that obtained by extraction” value [3]?
Answer: Its value is “identical in physical properties and antimicrobial activity to that obtained from the extraction method”.

Question: What about the MIC (Escherichia coli) of the same compound?
Answer: Its MIC is 60 µg/mL (≈ 370 µM).

Question: And the MIC (Aspergillus niger)?
Answer: The MIC was 200 µg/mL (≈ 1230 µM).

Question: What about the MIC (Cryptococcus neoformans) of the same compound?
Answer: Its MIC is 12.5 µg/mL (≈ 77.1 µM).

Question: And the MIC (Trichophyton rubrum)?
Answer: The MIC was 12.5 µg/mL (≈ 77.1 µM).

Question: And the MIC (Aspergillus fumigatus)?
Answer: The MIC was 100 µg/mL (≈ 617 µM).

Question: And the MIC [4]?
Answer: Its MIC is 12.5 µg/mL (≈ 77.1 µM).

Question: And the MIC (Microsporum canis)?
Answer: Its MIC is 6.25 µg/mL (≈ 38.5 µM).

Question: What about the MIC (Microsporum gypseum) of the same compound?
Answer: Its MIC is 25 µg/mL (≈ 154 µM).

Question: What about the MIC (Candida albicans) of the same compound?
Answer: The MIC was 50 µg/mL (≈ 308 µM).

Question: What about the MIC (Staphylococcus aureus) of the same compound?
Answer: Its MIC is 50 µg/mL (≈ 308 µM).
